Legend:
[1] = system: HT-29 cells; test: Inhibition of TNF-α-induced necroptosis of HT-29 cells (SRB method); assay type: cell-based, human; conditions: Homo sapiens, HT-29, TNF-α 20 ng/mL + BV6 2 µM + Z-VAD-FMK 20 µM, 18 h
Text: Example 57: Inhibition of TNF-α-Induced Necroptosis of HT-29 Cells by Compounds
• 1. Experimental reagents: McCOY's 5A culture medium, fetal bovine serum, penicillin-streptomycin, trypsin, PBS, TNF-α (MCE, HY-P7058), BV6 (MCE, HY-16701), Z-VAD-FMK (MCE, HY-16658B), SRB kit (Shanghai BestBio Biotechnology Co., Ltd., BB-4208-500T). • 2. Experimental instruments: medical low-temperature freezer (Thermo Fisher scientific, 902-ULTS), electrically heated thermostatic water bath (Shanghai Bluepard Instruments Co., Ltd., CD-420), low-speed centrifuge (ANHUI USTC Zonkia Scientific Instruments Co., Ltd, SC-3616), carbon dioxide incubator (Shanghai Bluepard Instruments Co., Ltd., BPN-150CH(UV)), inverted microscope (Olympus, CKX53), multi-functional microplate reader (Thermo Tecan, SPARK), class-II biosafety cabinet (AIRTECH, BSC-1304IIA2), and desktop cell counter (Thermo Fisher Scientific, Countess II). • 3. Cell culturing: HT-29 cells (human colon cancer cells) were cultured in a McCOY's 5A culture solution containing 10% fetal bovine serum and 1% penicillin-streptomycin solution in a 5% CO 2 at 37 °C and a saturated humidity, and culture medium changes and cell passaging were performed 3-4 times a week. • 4. […] The culture medium, trypsin, etc., were taken out from the freezer and transferred to the water bath for pre-heating. An appropriate amount of these substances was then taken for use. • (2) The old culture medium in the flask was aspirated using a sterile pipette and discarded, and the cells were washed 3 times with PBS. 1 mL of trypsin (25 cm^2 cell culture flask) was added into the flask, and the flask was gently shaken to allow the trypsin to cover all the cell surfaces. Digestion was performed in an incubator at 37 °C. After 2 min of digestion, the flask was placed under a microscope for observation. […] The mixture was gently pipetted using a pipette to homogenize the cells and thus prepare a single-cell suspension, and the cells were counted. • (5) The cells were diluted to 3 × 10^5/mL and seeded into a 96-well plate at 100 µL/well, such that there were 3 × 10^4 cells per well in the 96-well plate. The cells were incubated in a 5% CO2 incubator at 37 °C and a saturated humidity for 24 h, followed by the addition of compounds. • 4.2 Dilution and addition of compounds: • (1) TNF-α was dissolved in PBS to obtain a 100 µg/mL stock solution and aliquoted; Z-VAD-FMK was dissolved in DMSO to obtain a 10 mM stock solution and aliquoted; BV6 was dissolved in DMSO to obtain a 10 mM stock solution and aliquoted; GSK2982772 was dissolved in DMSO to obtain a 10 mM stock solution and aliquoted. One aliquot of each stock solution was stored at -20 °C for immediate use, while the remaining aliquots were stored at - 80 °C and used within their shelf life. • (2) McCOY's 5A culture solution containing TNF-α, BV6, and Z-VAD-FMK was prepared. For the positive control group and the test compound groups, the McCOY's 5A culture solution was added at 90 µL/well, and 10 µL of the culture medium containing the test compound was also added, thus making the final concentrations of TNF-α, BV6, and Z-VAD-FMK be 20 ng/mL, 2 µM, and 20 µM, respectively. For the DMSO (5‰) control group, 90 µL of the McCOY's 5A complete culture solution was added, and then 10 µL of DMSO was added, thus making the final concentration 5‰. • (3) Each target compound was three-fold diluted with a culture medium to 8 concentration gradients, with each concentration set in duplicate (10 µL/well). The final concentrations of each target compound were 1000.00/333.33/111.11/37.04/12.35/4.12/1.37/0.46 nM. • (4) The 96-well plate cultured for 24 h was taken out from the incubator, and the culture medium in the 96-well plate was carefully aspirated and discarded. A positive control group, test compound groups, and a DMSO (5‰) control group were set, and 10 µL of the corresponding compound was added to each group. […]

[2] = system: U937 cells; test: Inhibition of TNF-α-induced necroptosis of U937 cells (CCK-8 assay); assay type: cell-based, human; conditions: Homo sapiens, U-937, TNF-α 20 ng/mL + BV6 2 µM + Z-VAD-FMK 20 µM, 18 h
Text: Example 56: Inhibition of TNF-α-Induced Necroptosis of U937 Cells by Compounds
• 1. Experimental reagents: RPMI-1640 culture medium, fetal bovine serum, penicillin-streptomycin, TNF-α (MCE, HY-P7058), BV6 (MCE, HY-16701), Z-VAD-FMK (MCE, HY-16658B), and CCK-8 (Dalian Meilun Biotech Co., Ltd., MA0218). • 2. Experimental instruments: medical low-temperature freezer (Thermo Fisher scientific, 902-ULTS), electrically heated thermostatic water bath (Shanghai Bluepard Instruments Co., Ltd., CD-420), low-speed centrifuge (ANHUI USTC Zonkia Scientific Instruments Co., Ltd, SC-3616), carbon dioxide incubator (Shanghai Bluepard Instruments Co., Ltd., BPN-150CH(UV)), inverted microscope (Olympus, CKX53), multi-functional microplate reader (Thermo Tecan, SPARK), class-II biosafety cabinet (AIRTECH, BSC-1304IIA2), and desktop cell counter (Thermo Fisher Scientific, Countess II). • 3. Cell culturing: U937 cells (human histiocytic lymphoma cells) were cultured in an RPMI-1640 culture solution containing 10% fetal bovine serum and 1% penicillin-streptomycin solution in a 5% CO2 incubator at 37 °C and a saturated humidity. The cell culture flask was vertically placed in the incubator. A T25 culture flask was used as an example, the culture solution in the flask was 6-8 mL, and culture medium changes and cell passaging were performed 3-4 times a week. • 4. […] The culture medium was taken out from the freezer and transferred to the water bath for pre-heating. An appropriate amount of culture medium was then taken for use. • (2) The cell suspension was transferred to a 15 mL sterile centrifuge tube and centrifuged at 850 rpm for 4 min to collect U937 cells. • (3) The supernatant was carefully discarded, and an appropriate amount of culture medium was added. The mixture was gently pipetted using a pipette to homogenize the cells and thus prepare a single-cell suspension, and the cells were counted. • (4) The cells were diluted to 4 × 10^5/mL and seeded into a 96-well plate at 90 µL/well, such that the cell density in the 96-well plate was 3.6 × 10 ^4 cells/well. The cells were incubated in a 5% CO 2 incubator at 37 °C and a saturated humidity for 6 h, followed by the addition of compounds. • 4.2 Dilution and addition of compounds: • (1) TNF-α was dissolved in PBS to obtain a 100 µg/mL stock solution and aliquoted; Z-VAD-FMK was dissolved in DMSO to obtain a 10 mM stock solution and aliquoted; BV6 was dissolved in DMSO to obtain a 10 mM stock solution and aliquoted; GSK2982772 was dissolved in DMSO to obtain a 10 mM stock solution and aliquoted. One aliquot of each stock solution was stored at -20 °C for immediate use, while the remaining aliquots were stored at - 80 °C and used within their shelf life. • (2) RPMI-1640 culture medium containing TNF-α, BV6, and Z-VAD-FMK was prepared (5 µL/per well), such that the final concentrations of TNF-α, BV6, and Z-VAD-FMK were 20 ng/mL, 2 µM, and 20 µM, respectively. • (3) Each target compound was three-fold diluted with a culture medium to 8 concentration gradients, with each concentration set in duplicate (5 µL/well). The final concentrations of each target compound were 1000.00/333.33/111.11/37.04/12.35/4.12/1.37/0.46 nM. • (4) The 96-well plate containing 90 µL of cell suspension was taken out from an incubator, and a positive control group, test compound groups, and a DMSO (5‰) control group were set. 5 µL of RPMI-1640 culture solution containing TNF-α, BV6, and Z-VAD-FMK and 5 µL of culture solution containing the test compound were added to the positive control group and the test compound groups. After compound addition, the mixtures were cultured for 18 h, followed by the CCK-8 assay. • (5) The 96-well plate was taken out, and the CCK-8 reagent was carefully added at 10 µL/well. The mixtures were incubated at 37 °C for 2-4 h, and the absorbance value was measured at a wavelength of 450 nm. • 5. Evaluation of inhibitory activity of compounds on TNF-α-induced necroptosis of U937 [formula] […]

SMILES | EC50 [1] [nM] | EC50 [2] [nM]
O=C(NC1CCc2cc(C#CC3CC3)cc3c2N(CC3)C1=O)c1nnc(Cc2ccccc2)[nH]1 (stereo not drawn) [Compound I-1, 5-benzyl-N-(9-(cyclopropylethynyl)-4-oxo-1,2,3,4,6,7-hexahydroazepino[3,2,1-hi]indol-3-yl)-4H-1,2,4-triazole-3-carboxamide] | 100 to 200 | > 200
O=C(NC1CCc2cc(C#Cc3ccccn3)cc3c2N(CC3)C1=O)c1nnc(Cc2ccccc2)[nH]1 (stereo not drawn) [Compound I-2, 5-benzyl-N-(4-oxo-9-(pyridin-2-ylethynyl)-1,2,3,4,6,7-hexahydroazepino[3,2,1-hi]indol-3-yl)-4H-1,2,4-triazole-3-carboxamide] | 10 to 100 | 100 to 200
O=C(NC1CCc2cc(C#Cc3cccnc3)cc3c2N(CC3)C1=O)c1nnc(Cc2ccccc2)[nH]1 (stereo not drawn) [Compound I-3, 5-benzyl-N-(4-oxo-9-(pyridin-3-ylethynyl)-1,2,3,4,6,7-hexahydroazepino[3,2,1-hi]indol-3-yl)-4H-1,2,4-triazole-3-carboxamide] | 10 to 100 | 100 to 200
O=C(NC1CCc2cc(C#Cc3ccncc3)cc3c2N(CC3)C1=O)c1nnc(Cc2ccccc2)[nH]1 (stereo not drawn) [Compound I-4, 5-benzyl-N-(4-oxo-9-(pyridin-4-ylethynyl)-1,2,3,4,6,7-hexahydroazepino[3,2,1-hi]indol-3-yl)-4H-1,2,4-triazole-3-carboxamide] | 100 to 200 | 100 to 200
Cn1cc(C#Cc2cc3c4c(c2)CCN4C(=O)C(NC(=O)c2nnc(Cc4ccccc4)[nH]2)CC3)cn1 (stereo not drawn) [Compound I-5, 5-benzyl-N-(9-((1-methyl-1H-pyrazol-4-yl)ethynyl)-4-oxo-1,2,3,4,6,7-hexahydroazepino[3,2,1-hi]indol-3-yl)-4H-1,2,4-triazole-3-carboxamide] | 100 to 200 | 10 to 100
O=C(NC1CCc2cc(C#CC3CCOCC3)cc3c2N(CC3)C1=O)c1nnc(Cc2ccccc2)[nH]1 (stereo not drawn) [Compound I-6, 5-benzyl-N-(4-oxo-9-((tetrahydro-2H-pyran-4-yl)ethynyl)-1,2,3,4,6,7-hexahydroazepino[3,2,1-hi]indol-3-yl)-4H-1,2,4-triazole-3-carboxamide] | 10 to 100 | 10 to 100
CC(C)(O)C#Cc1cc2c3c(c1)CCN3C(=O)C(NC(=O)c1nnc(Cc3ccccc3)[nH]1)CC2 (stereo not drawn) [Compound I-7, 5-benzyl-N-(9-(3-hydroxy-3-methylbut-1-yn-1-yl)-4-oxo-1,2,3,4,6,7-hexahydroazepino[3,2,1-hi]indol-3-yl)-4H-1,2,4-triazole-3-carboxamide] | > 200 | 100 to 200
O=C(NC1CCc2cc(C#Cc3ccncc3)cc3c2N(CC3)C1=O)c1nnc(Cc2ccc(F)cc2)[nH]1 (stereo not drawn) [Compound I-8, 5-(4-fluorobenzyl)-N-(4-oxo-9-(pyridin-4-ylethynyl)-1,2,3,4,6,7-hexahydroazepino[3,2,1-hi]indol-3-yl)-4H-1,2,4-triazole-3-carboxamide] | > 200 | > 200
O=C(NC1CCc2cc(C#Cc3ccncc3)cc3c2N(CC3)C1=O)c1nnc(Cc2ccc(Cl)cc2)[nH]1 (stereo not drawn) [Compound I-9, 5-(4-chlorobenzyl)-N-(4-oxo-9-(pyridin-4-ylethynyl)-1,2,3,4,6,7-hexahydroazepino[3,2,1-hi]indol-3-yl)-4H-1,2,4-triazole-3-carboxamide] | > 200 | > 200
O=C(NC1CCc2cc(C#Cc3ccncc3)cc3c2N(CC3)C1=O)c1nnc(Cc2ccccc2Cl)[nH]1 (stereo not drawn) [Compound I-10, 5-(2-chlorobenzyl)-N-(4-oxo-9-(pyridin-4-ylethynyl)-1,2,3,4,6,7-hexahydroazepino[3,2,1-hi]indol-3-yl)-4H-1,2,4-triazole-3-carboxamide] | > 200 | 100 to 200
O=C(NC1CCc2cc(C#Cc3ccncc3)cc3c2N(CC3)C1=O)c1nnc(Cc2ccccc2F)[nH]1 (stereo not drawn) [Compound I-11, 5-(2-fluorobenzyl)-N-(4-oxo-9-(pyridin-4-ylethynyl)-1,2,3,4,6,7-hexahydroazepino[3,2,1-hi]indol-3-yl)-4H-1,2,4-triazole-3-carboxamide] | 100 to 200 | 100 to 200
O=C(NC1CCc2cc(C#Cc3ccncc3)cc3c2N(CC3)C1=O)c1nnc(Cc2c(F)cccc2F)[nH]1 (stereo not drawn) [Compound I-12, 5-(2,6-difluorobenzyl)-N-(4-oxo-9-(pyridin-4-ylethynyl)-1,2,3,4,6,7-hexahydroazepino[3,2,1-hi]indol-3-yl)-4H-1,2,4-triazole-3-carboxamide] | 10 to 100 | 10 to 100
